Reference: publication PMC10892984, “Novel Antineoplastic Inducers of Mitochondrial Apoptosis in Human Cancer Cells” (Molecules, 2024)

Assays:
HS 578T = settings: 48 h
PC-3 cells = assay: Cytochrome c assay (mitochondrial and cytosolic), ELISA; assay type: cell-based, human
Procedure: (§1) Cell numbers of 2 × 10^6 PC-3 and DU-145 cells were seeded into a […]. […] The protein content for each fraction was calculated to determine the mass content of cytochrome c in each fraction (pg cytochrome c/mg total protein). The mass content of cytochrome c (pg cytochrome c/mg total protein) was normalized towards the corresponding blank DMSO control and is given in percent (%) of blank DMSO control.

DU-145 cells = assay: as above; assay type: cell-based, human
Procedure: as §1

MALME-3M = settings: 48 h
[1] = Homo sapiens, 48 h, read-out: LC50
[2] = 25 µM, 50 µM and 75 µM, 48 h post-treatment

## COc1cc2c(c(OC)c1OC)-c1ccc(NNC(N)=S)c(=O)cc1C(NC(C)=O)CC2 [Compound 2, N-[(aS,7S)-10-(2-carbamothioylhydrazinyl)-1,2,3-trimethoxy-9-oxo-5,6,7,9-tetrahydrobenzo[a]heptalen-7-yl]acetamide monohydrate × ⅔ (ethyl acetate)]
HOP-62; HOP-62, non-small-cell lung cancer, mutant p53, 48 h
  TGI: > 100 µM
HOP-62; Homo sapiens, HOP-62, 48 h
  GI50: 0.7 µM
HOP-62; Homo sapiens, HOP-62, 48 h, read-out: LC50
  CC50: > 100 µM
PC-3; Homo sapiens, PC-3, 48 h
  GI50: 0.255 µM
PC-3; Homo sapiens, PC-3, 48 h, read-out: LC50
  CC50: > 100 µM
PC-3; PC-3, prostate cancer, mutant p53 (null p53 protein), 48 h
  TGI: > 100 µM
SK-MEL-28; Homo sapiens, SK-MEL-28, 48 h, read-out: LC50
  CC50: > 100 µM
SK-MEL-28; SK-MEL-28, melanoma, mutant p53, 48 h
  TGI: > 100 µM
NCI-H522; Homo sapiens, NCI-H522, 48 h
  GI50: 0.55 µM
NCI-H522; Homo sapiens, NCI-H522, 48 h, read-out: LC50
  CC50: > 100 µM
NCI-H522; NCI-H522, non-small-cell lung cancer, mutant p53, 48 h
  TGI: > 100 µM
SK-MEL-2; Homo sapiens, SK-MEL-2, 48 h
  GI50: > 100 µM
SK-MEL-2; Homo sapiens, SK-MEL-2, 48 h, read-out: LC50
  CC50: > 100 µM
SK-MEL-2; SK-MEL-2, melanoma, mutant p53, 48 h
  TGI: > 100 µM
HS 578T; HS 578T, breast cancer, mutant p53
  TGI: > 100 µM
HS 578T; Homo sapiens, Hs-578T
  GI50: > 100 µM
HS 578T; Homo sapiens, Hs-578T, read-out: LC50
  CC50: > 100 µM
SN12C; Homo sapiens, 48 h
  GI50: 0.828 µM
SN12C; [1]
  CC50: > 100 µM
SN12C; renal cancer, mutant p53, 48 h
  TGI: > 100 µM
CCRF-CEM; Homo sapiens, 48 h
  GI50: 0.422 µM
CCRF-CEM; [1]
  CC50: > 100 µM
CCRF-CEM; leukemia, mutant p53, 48 h
  TGI: > 100 µM
NCI-H226; Homo sapiens, NCI-H226, 48 h
  GI50: 1.74 µM
NCI-H226; Homo sapiens, NCI-H226, 48 h, read-out: LC50
  CC50: > 100 µM
NCI-H226; NCI-H226, non-small-cell lung cancer, p53 Lit. inconclusive, 48 h
  TGI: > 100 µM
PC-3 cells; [2]
  toxicity for the cell line: highly toxic
PC-3 cells; 48 h
  difference in the cytochrome c-residing cellular compartment: failed to induce a significant difference
DU-145 cells; [2]
  toxicity for the cell line: highly toxic
DU-145 cells; 48 h, stated as less significantly than in PC-3
  difference in the cytochrome c-residing cellular compartment: failed to induce a significant difference
HCT-15; HCT-15, colon cancer, mutant p53, 48 h
  TGI: > 100 µM
HCT-15; Homo sapiens, HCT-15, 48 h
  GI50: 4.03 µM
HCT-15; Homo sapiens, HCT-15, 48 h, read-out: LC50
  CC50: > 100 µM
HT29; HT29, colon cancer, mutant p53, 48 h
  TGI: > 100 µM
HT29; Homo sapiens, HT-29, 48 h
  GI50: 0.336 µM
HT29; Homo sapiens, HT-29, 48 h, read-out: LC50
  CC50: > 100 µM
MALME-3M; Homo sapiens, Malme-3M
  GI50: 0.394 µM
MALME-3M; Homo sapiens, Malme-3M, read-out: LC50
  CC50: > 100 µM
MALME-3M; MALME-3M, melanoma, wild-type p53
  TGI: > 100 µM
NCI-H23; Homo sapiens, NCI-H23, 48 h
  GI50: 0.438 µM
NCI-H23; Homo sapiens, NCI-H23, 48 h, read-out: LC50
  CC50: > 100 µM
NCI-H23; NCI-H23, non-small-cell lung cancer, mutant p53, 48 h
  TGI: > 100 µM
DU-145; DU-145, prostate cancer, mutant p53, 48 h
  TGI: 1.44 µM
DU-145; Homo sapiens, DU-145, 48 h
  GI50: 0.341 µM
DU-145; Homo sapiens, DU-145, 48 h, read-out: LC50
  CC50: > 100 µM
SF-295; Homo sapiens, SF-295, 48 h
  GI50: 0.549 µM
SF-295; Homo sapiens, SF-295, 48 h, read-out: LC50
  CC50: > 100 µM
SF-295; SF-295, CNS cancer (brain tumor), mutant p53, 48 h
  TGI: > 100 µM
MDA-MB-231; Homo sapiens, MDA-MB-231, 48 h
  GI50: 0.359 µM
MDA-MB-231; Homo sapiens, MDA-MB-231, 48 h, read-out: LC50
  CC50: > 100 µM
MDA-MB-231; MDA-MB-231, breast cancer, mutant p53, 48 h
  TGI: 1.88 µM
786-0; 786-0, renal cancer, mutant p53, 48 h
  TGI: > 100 µM
786-0; Homo sapiens, 786-0, 48 h
  GI50: 0.818 µM
786-0; Homo sapiens, 786-0, 48 h, read-out: LC50
  CC50: > 100 µM
LOX IMVI; Homo sapiens, 48 h
  GI50: 0.71 µM
LOX IMVI; [1]
  CC50: > 100 µM
LOX IMVI; melanoma, wild-type p53, 48 h
  TGI: > 100 µM
OVCAR-4; Homo sapiens, OVCAR-4, 48 h
  GI50: 0.507 µM
OVCAR-4; Homo sapiens, OVCAR-4, 48 h, read-out: LC50
  CC50: > 100 µM
OVCAR-4; OVCAR-4, ovarian cancer, mutant p53, 48 h
  TGI: > 100 µM
BT-549; BT-549, breast cancer, mutant p53, 48 h
  TGI: 0.924 µM
BT-549; Homo sapiens, BT-549, 48 h
  GI50: 0.294 µM
BT-549; Homo sapiens, BT-549, 48 h, read-out: LC50
  CC50: > 100 µM
RXF 393; Homo sapiens, RXF 393, 48 h
  GI50: 0.298 µM
RXF 393; Homo sapiens, RXF 393, 48 h, read-out: LC50
  CC50: > 100 µM
RXF 393; RXF 393, renal cancer, mutant p53, 48 h
  TGI: 0.747 µM
TK-10; Homo sapiens, TK-10, 48 h
  GI50: 6.77 µM
TK-10; Homo sapiens, TK-10, 48 h, read-out: LC50
  CC50: > 100 µM
TK-10; TK-10, renal cancer, mutant p53, 48 h
  TGI: > 100 µM
KM-12; Homo sapiens, KM12, 48 h
  GI50: 0.255 µM
KM-12; Homo sapiens, KM12, 48 h, read-out: LC50
  CC50: > 100 µM
KM-12; KM-12, colon cancer, mutant p53, 48 h
  TGI: 0.801 µM
NCI-H460; Homo sapiens, NCI-H460, 48 h
  GI50: 0.429 µM
NCI-H460; Homo sapiens, NCI-H460, 48 h, read-out: LC50
  CC50: > 100 µM
NCI-H460; NCI-H460, non-small-cell lung cancer, wild-type p53, 48 h
  TGI: > 100 µM
